≈ marks a conversion by molar mass, not a printed value.
Assay: Solubility of drug in the dissolution fluid and excipient-fluid solutions (UV absorption)
Format: physicochemical
Conditions: 37° C.
Description: For determining the solubility of drug in the dissolution fluid, 1 mg ibuprofen particles were put in a UV cuvette. The cuvette was then filled with 2.5 ml of the dissolution fluid (0.1 M HCl in deionized water at 37° C.). The concentration of dissolved drug was monitored by UV absorption using a Perkin Elmer Lambda 1050 Spectrophotometer. Between measurements, the cuvette was flipped at a frequency of 0.5 Hz to stir the solution. The temperature of the solution in the cuvette was maintained at 37° C., during the experiment. When the drug concentration in the solution reached its equilibrium value the drug solubility was recorded.
The solubility of drug in excipient-dissolution fluid solutions was determined by immersing 1.5 mg of the ibuprofen particles and different amounts (1.5-200 mg) of excipient in 2.5 ml dissolution fluid. The excipient was either HPMC or a mixture of 67 wt % HPMC and 33 wt % polyoxyl stearate. The dissolution fluid was 0.1 M HCl in deionized water.

[1] = 1 mg ibuprofen particles in 2.5 ml stirred dissolution fluid

## CC(C)Cc1ccc(C(C)C(=O)O)cc1 (stereo not drawn) [ibuprofen]
[1]
  concentration of dissolved drug at 3000 minutes (50 h): 40000 ng/mL
  time to reach the solubility c0: ≤ 15,000 minutes
Dissolution fluid (0.1 M HCl in deionized water), simulated gastric fluid, thermodynamic from solid, 0.1 M HCl in deionized water, no excipient, read-out: solubility of ibuprofen in the dissolution fluid, c0
  solubility: ~50 µg/mL (≈ 242 µM)
